The test system of one data set is C9orf72 V2 transcripts. The experiment in a line: RT-qPCR analysis of C9V2 mRNA levels in human RPE1 cells after drug treatment. The class given is cell-based. The conditions noted are these: 24 h; for levels of C9orf72 V2 transcripts: vs DMSO, FIG. 13J; for C9V2 mRNA, as measured by RT-qPCR: increasing concentrations of TM or TG, FIG. 13G. How it is done: (§1) Cell culture, drug treatment, lentiviral shRNA knockdown, and live-cell imaging—HEK293 cells and mouse embryonic fibroblast (MEF) cells were cultured in DMEM containing 10% FBS. Human retinal pigment epithelial 1 (RPE1) cells were cultured in DMEM/F12 containing 10% FBS and 0.01 mg/ml hygromycin B. Human B lymphocytes were cultured in RPMI 1640 medium containing 15% FBS. Human iPSCs were obtained from the NINDS Human Cell and Data Repository and maintained in StemFlex medium (Gibco, A3349401), with medium exchange every other day. All cell lines were checked regularly for mycoplasma contamination. To induce cell stress, RPE1 cells were treated with thapsigargin (30 nM) or tunicamycin (5 μg/ml) for 24 h, and B lymphocytes were treated with thapsigargin (40 nM) or tunicamycin (1 μg/ml) for 24 h. To express PR82, RPE1 cells were transfected with the pLenti-PR82 plasmid and cultured for 48 h.
(§2) Quantitative PCR— Total RNAs were extracted with an RNeasy Plus mini kit (Qiagen, 74136), and cDNAs were synthesized using QuantiTect reverse transcription reagents (Qiagen, 205313). qPCR reactions were carried out on a Bio-Rad thermal cycler using PowerUp SYBR Green Master Mix (ThermoFisher Scientific). The primer sets for C9orf72 transcripts V1, V2, and V3 were described previously (Gendron et al., 2017, incorporated herein by reference). The expression of C9orf72 pre-mRNA was measured with a pair of primers targeted to the junction region between exon 2 and intron 3 (SEQ ID NO: 11 and 12). The mRNA expression levels were analyzed by the ΔΔCt method and normalized against housekeeping genes. In the promoter analysis, the EGFP transcription level was normalized to the GAPDH transcript and the plasmid-encoded ampicillin resistance (AmpR) transcript to exclude any bias induced by differential transfection efficiency.
In general terms: Real-time PCR tracks product formation cycle by cycle.

For the next data set, the system named is C9HRE iMNs. The experiment in a line: Neuronal survival of C9HRE iMNs under tunicamycin stress, calcein-AM staining. Type of data set: cell-based, human. How it is done:
(§3) Motor neuron differentiation of human iPS cells and experimental analyses—The differentiation of iPSCs into motor neurons was performed as previously described (Liu et al., 2018). In brief, iPSCs were seeded onto Matrigel-coated plates and differentiated into neuroepithelial progenitor cells (NEPCs) by culturing 6 days in neural medium (1:1 DMEM/F12:neurobasal medium. GlutaMax, N2 supplement, B27 supplement, and ascorbic acid) containing 3 μM […], 2 μM SB431542, and 2 μM DMH-1. NEPCs were dissociated with dispase (1 U/ml) and split into new plates coated with Matrigel at a ratio of about 1:6. NEPCs were differentiated into motor neuron progenitor cells (MNPCs) using neural medium supplemented with 1 μM CHIR99021, 2 μM SB431542, 2 μM DMH-1, 0.1 μM retinoic acid (RA), and 0.5 μM purmorphamine. After culturing for 6 days, MNPCS were dissociated and cultured in suspension using neural medium containing 0.5 μM RA and 0.1 μM purmorphamine. Six days later, neural spheres were dissociated and plated onto a Matrigel-coated plate. Adherent neural spheres were cultured in neural medium supplemented with 0.5 μM RA, 0.1 μM purmorphamine, and 0.1 μM compound E. After 12 days, mature motor neurons were provided for experiments. The medium was changed every other day during the entire differentiation period.
For knockdown experiments on motor neurons, iMNs were infected twice with the shRNA-expressing lentiviruses, on day 10 and day 12 at the final differentiation stage, and the cells were used on day 15 to allow for efficient DAXX knockdown. Mature iMNs were stressed with tunicamycin (5 μg/ml) in the presence of Na-Phen (10 μM) or 5-aza-2 ([…]) for the indicated times, and neuronal survival at each time point was measured by calcein-AM staining. In brief, iMNs were stained with 3 μM calcein-AM (Invitrogen, C1430), and the fluorescence of surviving iMNs was read using a plate reader (Synergy H1 Hybrid) with excitation/emission at 485 nm/535 nm. Optical fields with calcein-positive iMNs were randomly selected and images captured using a fluorescence microscope (Nikon Eclipse TS100).

Data set [1] has as its system mutant SOD1 mouse model of ALS. The conditions noted are these: Ryu et al., 2005; cited from earlier work.
Another data set has as its system C9orf72 protein and mRNA. The data set is described as follows: Stress-induced C9orf72 expression in control and C9HRE B lymphocytes (immunoblotting, RT-qPCR). The class given is cell-based, human. The following applies: tunicamycin 1 μg/ml or thapsigargin 40 nM, 24 h; for dynamic regulation of C9orf72 expression: B lymphocytes from C9HRE patients; for stress-responsive induction of C9orf72 expression at both the protein and mRNA levels: normal B lymphocytes. How it is done: as §1, §2
Immunoblotting—Cultured cells were washed twice with PBS and lysed in cold RIPA buffer containing 50 mM Tris (pH 7.5), 0.5% SDS, 150 mM NaCl, 0.5% NP40, 20 mM EDTA, 1 mM PMSF, and Protease Inhibitor Cocktail (1:200, Millipore Sigma, P8340).
(§4) Protein concentrations were measured by the bicinchoninic acid assay (ThermoFisher, 23225). […] Western blot images were captured by an Odyssey scanner (LI-COR) and analyzed with Image Studio (version 5.2.5). […]
(In western blotting, separated proteins are transferred to a membrane and probed.)

For another data set, the system named is C9V2 mRNA. The data set is described as follows: RT-qPCR analysis of C9V2 mRNA in HEK293 cells after stressor treatment. Type of data set: cell-based, human. The conditions noted are these: increasing concentrations of TM or TG, 24 h, FIG. 13F. Here is the method:
as §1, with “To express PR82, RPE1 cells were transfected with the pLenti-PR82 plasmid and cultured for 48 h.” left out
(§5) Quantitative PCR— Total RNAs were extracted with an RNeasy Plus mini kit (Qiagen, 74136), and cDNAs were synthesized using QuantiTect reverse transcription reagents (Qiagen, 205313). qPCR reactions were carried out on a Bio-Rad thermal cycler using PowerUp SYBR Green Master Mix (ThermoFisher Scientific). […] The expression of C9orf72 pre-mRNA was measured with a pair of primers targeted to the junction region between exon 2 and intron 3 (SEQ ID NO: 11 and 12). The mRNA expression levels were analyzed by the ΔΔCt method and normalized against housekeeping genes. […]

Another data set relates to C9orf72 V2 promoter. The experiment in a line: ChIP-qPCR of H3K9me3 and H3K27ac at the C9orf72 V2 promoter in human RPE1 cells. Type of data set: cell-based. The following applies: 24 h, vs DMSO, FIG. 13I. How it is done:
as §1
Chromatin immunoprecipitation qPCR—ChIP-qPCR analysis of RPE1 cells, B lymphocytes, and iPSC-differentiated motor neurons was performed by using a CHIP assay kit (Millipore Sigma, 17-295). In brief, protein complexes were crosslinked with 1% formaldehyde at 37° C. for 10 min and quenched with glycine at a final concentration of 125 mM at 37° C. for 5 min. […]

Data set [2] concerns C9orf72 protein and V2 mRNA. The data set is described as follows: Stress-induced C9orf72 expression in control and C9HRE iMNs (immunoblotting, RT-qPCR). Type of data set: cell-based, human. The conditions noted are these: tunicamycin 5 μg/ml, 24 h. Here is the method: as §3, §5, §4
A further data set concerns the target DAXX (Homo sapiens, UniProt Q9UER7 Q9UER7:1-740). The data set is described as follows: EMSA; significantly preferential over random control; 50 nM probe, 10 mM Tris pH 7.5, 1 mM EDTA, 0.1 mM DTT, BSA, 5% glycerol, RT 30 min. The conditions noted are these: tags: Flag-DAXX (Flag-Daxx/pRK5, Addgene 27974), anti-Flag M2 purified from HEK293 per Methods; label: 5' Alexa Fluor 488 on one strand. How it is done:
Several assays were used to validate the interaction between DAXX and the G4C2 repeat dsDNA. […] Next, experiments were conducted to test whether DAXX protein and G4C2 repeat dsDNA interact directly. In these experiments, human DAXX protein (FIG. 8D) was purified and an electrophoresis mobility shift assay (EMSA) was performed using 5′ AlexaFluor 488-labeled (G4C2)₁₀ dsDNA or a length-matched random sequence control. […] In addition, experiments were performed to establish the association of endogenous DAXX with the expanded C9orf72 (G4C2)n DNA repeats in situ. In these experiments, DNA fluorescent in situ hybridization (FISH) was used to immunostain DAXX on multiple lines of ALS and/or FTD patient lymphocytes carrying C9orf72 HRE mutations. A co-localization between the DAXX immunostaining and FISH staining at the C9HRE locus was indicated by a well-demarcated punctum present only in the nuclei of patient cells and not in the control cells (FIG. 1A).

We go through five molecules from patent US20260144808A1, “TREATMENT OF REPEAT EXPANSION DISEASE” (The Johns Hopkins University, priority 2022, published 2026).

Chain of DAXX (Q9UER7 whole entry, one chain of several): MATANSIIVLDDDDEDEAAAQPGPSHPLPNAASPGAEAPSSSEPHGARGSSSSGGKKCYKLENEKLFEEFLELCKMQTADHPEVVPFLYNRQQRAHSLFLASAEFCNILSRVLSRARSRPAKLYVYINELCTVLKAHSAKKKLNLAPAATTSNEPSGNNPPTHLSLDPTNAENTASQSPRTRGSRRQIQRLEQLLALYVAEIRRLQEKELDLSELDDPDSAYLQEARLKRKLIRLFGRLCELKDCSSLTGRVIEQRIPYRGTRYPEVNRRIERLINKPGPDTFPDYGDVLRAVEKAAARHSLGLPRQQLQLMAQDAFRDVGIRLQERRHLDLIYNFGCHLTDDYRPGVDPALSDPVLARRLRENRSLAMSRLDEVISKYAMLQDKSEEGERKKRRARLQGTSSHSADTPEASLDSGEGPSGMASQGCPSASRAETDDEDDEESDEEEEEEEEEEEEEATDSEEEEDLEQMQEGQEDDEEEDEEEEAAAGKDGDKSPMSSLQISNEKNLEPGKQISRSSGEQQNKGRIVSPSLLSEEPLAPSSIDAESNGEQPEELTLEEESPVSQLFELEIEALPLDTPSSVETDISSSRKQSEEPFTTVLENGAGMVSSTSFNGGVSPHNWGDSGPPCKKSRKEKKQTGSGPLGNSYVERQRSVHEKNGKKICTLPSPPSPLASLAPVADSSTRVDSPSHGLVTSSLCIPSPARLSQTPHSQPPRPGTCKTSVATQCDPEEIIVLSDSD

As for `Nc1ncn([C@H]2C[C@H](O)[C@@H](CO)O2)c(=O)n1` [Compound 5-aza-2, 5-aza-2′-deoxycytidine], the “levels of C9orf72 V2 transcripts” value in the data set on C9orf72 V2 transcripts (5-aza-2 2 μM) is given as “significantly upregulated”. In addition, the “survival of C9HRE iMNs exposed to tunicamycin” value in the data set on C9HRE iMNs (TM 5 μg/ml with 5-aza-2 2 μM, vs DMSO, FIG. 7C, D) is on record as “significant increase”.
Turning to `O=C([O-])CCCc1ccccc1.[Na+]` [Na-Phen, sodium phenylbutyrate], in data set [1], the “survival in a mutant SOD1 mouse model of ALS” value is given as “prolongs the survival”. Also, the “levels of C9orf72 V2 transcripts” value with C9orf72 V2 transcripts (Na-Phen 10 μM) was “significantly upregulated”. Moreover, the “protection of C9HRE iMNs from tunicamycin-induced stress” value with C9HRE iMNs (TM 5 μg/ml with Na-Phen 10 μM, vs DMSO, FIG. 7C, D) is “robust protection”.
Regarding `C/C=C(/C)C(=O)O[C@H]1C(C)=C2[C@H]([C@@H]1OC(=O)CCCCCCC)[C@@](C)(OC(C)=O)C[C@H](OC(=O)CCC)[C@@]1(O)[C@H]2OC(=O)[C@@]1(C)O` [thapsigargin], in the data set on C9orf72 protein and mRNA, the “dynamic regulation of C9orf72 expression” value is “lost”; the “stress-responsive induction of C9orf72 expression at both the protein and mRNA levels” value is given as “observed”. The “C9V2 mRNA, as measured by RT-qPCR” value in the data set with C9V2 mRNA was “stress-dependent induction”. Further, in the data set with C9orf72 V2 transcripts, the “C9V2 mRNA, as measured by RT-qPCR” value was “stress-dependent induction”. Besides, the “levels of the repressive marker H3K9me3 at the C9orf72 V2 promoter” value in the data set on C9orf72 V2 promoter (TG 30 nM) is “decreased”.
In the case of tunicamycin, in the data set on C9orf72 protein and mRNA, the “dynamic regulation of C9orf72 expression” value is “lost”; the “stress-responsive induction of C9orf72 expression at both the protein and mRNA levels” value is “observed”. The “tunicamycin-induced upregulation of C9orf72 expression” value in data set [2] (iMNs derived from C9HRE patients, FIG. 5A-C) is recorded as “absent”. In addition, in data set [2] (iMNs from healthy individuals, vs DMSO, FIG. 5A-B), the C9orf72 protein levels entry is listed as “significantly increased”. Also, the “C9orf72 V2 mRNA levels” value in data set [2] (iMNs from healthy individuals, vs DMSO, FIG. 5C) was “significantly increased”. Besides, in the data set with C9V2 mRNA, the “C9V2 mRNA, as measured by RT-qPCR” value is on record as “stress-dependent induction”. In addition, the “C9V2 mRNA, as measured by RT-qPCR” value in the data set with C9orf72 V2 transcripts was “stress-dependent induction”. In addition, in the data set with C9orf72 V2 promoter (TM 5 μg/ml), the “levels of the active marker H3K27ac at the C9orf72 V2 promoter” value was “elevated”. Also, the “loss of C9HRE iMNs” value with C9HRE iMNs (tunicamycin 5 μg/ml alone, FIG. 7A, B) is recorded as “time-dependent loss”.

B1: (G4C2)10 dsDNA (dsDNA)
DNA 1: GGGGCCGGGGCCGGGGCCGGGGCCGGGGCCGGGGCCGGGGCCGGGGCCGGGGCCGGGGCC
DNA 2: GGCCCCGGCCCCGGCCCCGGCCCCGGCCCCGGCCCCGGCCCCGGCCCCGGCCCCGGCCCC
For the molecule B1, in the data set with DAXX, the binding result is on record as “binds”.
